Biological target: T1, SapB (Homo sapiens, UniProt P07602)
T1 construct: made in house; host or cells: E. coli
T1 sequence (P07602 195-273 limits assumed): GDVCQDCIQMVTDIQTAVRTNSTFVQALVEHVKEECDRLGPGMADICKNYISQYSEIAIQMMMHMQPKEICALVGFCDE
Assay: Fluorescence quenching titration of SapB with ligand (double logarithmic Stern-Volmer analysis)
Format: binding
Experimental: A2E and SapB were prepared and purified according to literature reports. To determine the A2E/protein binding stoichiometry, a fluorescence titration was carried out by incrementally adding small amounts of A2E to a solution of SapB (FIG. 2). […] A double logarithmic plot of
Fluorescence quenching measurements were performed on a Varian Cary Eclipse fluorimeter equipped with a QNW Peltier temperature controller. The experiments were conducted at 25.00±0.01° C. in 50 mM phosphate buffer, pH 5.50 or 7.40 using 278 nm excitation wavelength for sapB emission spectra at 325 nm (FIG. 2) or 444 nm excitation for A2E emission at 602 nm (FIG. 3) with excitation and emission monochromators bandwidth of 5 nm each. The fluorescence quenching data were analyzed using OriginLab software version 8.
The interaction of SapB (prepared as described above) with a variety of ligands was followed by monitoring the quenching of the fluorescence intensities of the protein's tyrosine residues upon binding (FIG. 12 Panels a-f).
For each ligand tested 40 μM SapB in 50 mM phosphate buffer at pH 5.5 was titrated with ligand and quenching was monitored at the fluorescence maxima at 330 nm. […] All of the fluorescence data were analyzed by a double logarithmic Stern-Volmer plot, shown for all ligands, using the emission maxima to determine binding affinity, presented in Table 3, and using the following equation
Materials and Methods—Saposin B (SapB) was prepared and purified as described above. Briefly, SapB solutions in this study were prepared in 50 mM phosphate buffer, pH 5.5. […] Ligand solutions were prepared in 100% dimethylformamide (DMF) to a concentration of 2 mM, with the exception of hydoxychloroquine (HCQ), which was prepared in 50 mM phosphate buffer, pH 5.5. […] 4.2. Fluorescence Spectroscopy. Fluorescence quenching measurements were performed on a Varian Cary Eclipse fluorimeter equipped with a QNW Peltier temperature controller. The binding experiments were conducted at 25.00±0.01° C. in 50 mM phosphate buffer, pH 5.5, using 278 nm excitation wavelength for SapB emission spectra at 330 nm (FIG. 1a-f) with excitation and emission monochromators bandwidth of 5 nm each. Temperature sensitive binding experiments were performed between 20.00±0.01 and 40.00±0.01° C. using 278 nm excitation wavelength for SapB emission spectra at 331 nm, with excitation and emission monochromators bandwidth of 5 nm each. The fluorescence quenching data were analyzed using OriginLab software version 8.

For CC(C=CC1=C(C)CCCC1(C)C)=CC=CC(C)=Cc1cc(C=CC=C(C)C=CC2=C(C)CCCC2(C)C)cc[n+]1CCO [A2E, N-retinylidene-N-retinylethanolamine], the “binding stoichiometry from double logarithmic plot” value was roughly 1 A2E per SapB dimer, the “LogKA of binding by SapB” value (40 μM SapB, 50 mM phosphate buffer pH 5.5, average of three runs) was 4.680 and the “binding affinity (KA), A2E to SapB” value (double logarithmic plot, 50 mM phosphate buffer pH 5.5, 25° C.) was roughly 4e+06 M⁻¹. For the same molecule, the Kd (read-out: KD, SapB binds A2E) was 25 µM and the “binding stoichiometry, discontinuity of fluorescence quenching at 308 nm” value (titration of SapB with A2E) was roughly 0.5 A2E/protein.

Reference: patent US10813981B2, “Saposin B binds the lipofuscin bisretinoid A2E and prevents its enzymatic and photo degradation” (Syracuse University, priority 2017, dated 2020)
